From ChEMBL document CHEMBL4732126, “Design, synthesis, and biodistribution studies of new analogues of marine alkaloids: Potent in vitro and in vivo fungicidal agents against Candida spp” (Eur J Med Chem, 2021)
Calls of active or inactive are those of the source. The rule behind the calls is not given here.

What was measured:
[1] = Toxicity in Swiss mouse assessed as relative kidney weight at 20 mg/kg, ip measured after 24 hrs (reference value: 14.91 +/- 0.99 g); format: organism-based; details: in vivo
[2] = Toxicity in Swiss mouse infected with Candida albicans ATCC 10231 assessed as effect on spleen weight at 10 mg/kg, ip administered at 2, 24 and 48 hrs post-infection and measured at 24 hrs after last dose; format: organism-based; details: in vivo, 72 h
[3] = Toxicity in Swiss mouse infected with Candida albicans ATCC 10231 assessed as effect on spleen at 10 mg/kg, ip administered at 2, 24 and 48 hrs post-infection and measured at 24 hrs after last dose by macroscopic analysis; format: organism-based; details: in vivo, 72 h
Candida albicans [4] = assay: Antibiofilm activity against Candida albicans ATCC 10231 assessed as reduction in biofilm formation at 0.24 to 7.81 ug/ml by crystal violet staining based spectrophotometric analysis; format: functional, organism-based; details: dose 0.24-7.81 µg/ml
[5] = Toxicity in Swiss mouse assessed as relative heart weight at 1 mg/kg, ip measured after 24 hrs (reference value: 4.75 +/- 0.60 g); format: organism-based; details: in vivo
Candida albicans [6] = assay: Antifungal activity against Candida albicans isolate 1 assessed as reduction in fungal growth incubated for 48 hrs by broth microdilution method; format: functional
[7] = Toxicity in Swiss mouse infected with Candida albicans ATCC 10231 assessed as effect on lung at 10 mg/kg, ip administered at 2, 24 and 48 hrs post-infection and measured at 24 hrs after last dose by macroscopic analysis; format: organism-based; details: in vivo, 72 h
Candida tropicalis [8] = assay: Antifungal activity against Candida tropicalis ATCC 28707 assessed as reduction in fungal growth incubated for 48 hrs in presence of ergosterol by broth microdilution method; format: functional
[9] = Toxicity in Swiss mouse assessed as relative liver weight at 20 mg/kg, ip measured after 24 hrs (reference value: 49.42 +/- 7.17 g); format: organism-based; details: in vivo
Candida albicans [10] = assay: In vivo antifungal activity in Swiss mouse infected with Candida albicans ATCC 10231 assessed as reduction in fungal load in spleen at 0.5 mg/kg, ip administered at 2, 24 and 48 hrs post-infection and measured per gm of organ at 24 hrs post-last dose (reference value: 2.34); format: functional; details: time 72 hrs
[11] = Toxicity in Swiss mouse assessed as relative kidney weight at 10 mg/kg, ip measured after 24 hrs (reference value: 14.91 +/- 0.99 g); format: organism-based; details: in vivo
Candida tropicalis [12] = assay: Antifungal activity against Candida tropicalis ATCC 28707 assessed as reduction in fungal growth incubated for 48 hrs by broth microdilution method; format: functional
Nakaseomyces glabratus = assay: Antifungal activity against Candida glabrata ATCC 2001 assessed as reduction in fungal growth incubated for 48 hrs by broth microdilution method; format: functional
[13] = Toxicity in Swiss mouse assessed as relative kidney weight at 1 mg/kg, ip measured after 24 hrs (reference value: 14.91 +/- 0.99 g); format: organism-based; details: in vivo
Candida albicans [14] = assay: Antifungal activity against Candida albicans ATCC 10231 assessed as reduction in fungal growth incubated for 48 hrs by broth microdilution method; format: functional
Pichia kudriavzevii [15] = assay: Disruption of cell membrane in Candida krusei ATCC 34135 assessed as increase in intracellular leakage at MIC incubated for 24 hrs by UV spectrophotometric analysis; format: cell-based
[16] = Toxicity in Swiss mouse infected with Candida albicans ATCC 10231 assessed as reduction in body weight at 10 mg/kg, ip administered at 2, 24 and 48 hrs post-infection and measured at 24 hrs after last dose; format: organism-based; details: in vivo, 72 h
Candida albicans [17] = assay: Antifungal activity against Candida albicans isolate 6 assessed as reduction in fungal growth incubated for 48 hrs by broth microdilution method; format: functional
[18] = Toxicity in Swiss mouse infected with Candida albicans ATCC 10231 assessed as effect on body weight at 0.5 to 1 mg/kg, ip administered at 2, 24 and 48 hrs post-infection and measured at 24 hrs after last dose; format: organism-based; details: in vivo, 72 h, dose 0.5-1 mg/kg
[19] = Toxicity in Swiss mouse infected with Candida albicans ATCC 10231 assessed as effect on liver weight at 10 mg/kg, ip administered at 2, 24 and 48 hrs post-infection and measured at 24 hrs after last dose; format: organism-based; details: in vivo, 72 h
[20] = Toxicity in Swiss mouse assessed as relative lung weight at 1 mg/kg, ip measured after 24 hrs (reference value: 6.35 +/- 0.68 g); format: organism-based; details: in vivo
Pichia kudriavzevii [21] = assay: Fungicidal activity against Candida krusei ATCC 34135 assessed as fungal killing incubated for 48 hrs followed by plating on SD agar plate; format: functional; details: read-out: MFC99.9
[22] = Toxicity in Swiss mouse assessed as relative spleen weight at 3 mg/kg, ip measured after 24 hrs (reference value: 4.02 +/- 0.59 g); format: organism-based; details: in vivo
Candida albicans [23] = assay: Antifungal activity against Candida albicans isolate 10 assessed as reduction in fungal growth incubated for 48 hrs by broth microdilution method; format: functional
Candida albicans [24] = assay: Disruption of cell membrane in Candida albicans ATCC 10231 assessed as increase in intracellular leakage at MIC incubated for 24 hrs by UV spectrophotometric analysis; format: cell-based
Candida albicans [25] = assay: Disruption of cell membrane in Candida albicans ATCC 10231 assessed as increase in number of invagination at 2 times of MIC incubated for 1 hr by SEM analysis
Candida albicans [26] = assay: Fungicidal activity against Candida albicans isolate 5 assessed as fungal killing incubated for 48 hrs followed by plating on SD agar plate; format: functional; details: read-out: MFC99.9
Candida albicans [27] = assay: Fungicidal activity against Candida albicans isolate 3 assessed as fungal killing incubated for 48 hrs followed by plating on SD agar plate; format: functional; details: read-out: MFC99.9
[28] = Toxicity in Swiss mouse assessed as relative liver weight at 1 mg/kg, ip measured after 24 hrs (reference value: 49.42 +/- 7.17 g); format: organism-based; details: in vivo
Candida albicans [29] = assay: In vivo antifungal activity in Swiss mouse infected with Candida albicans ATCC 10231 assessed as reduction in fungal load in liver at 0.5 mg/kg, ip administered at 2, 24 and 48 hrs post-infection and measured per gm of organ at 24 hrs post-last dose (reference value: 1.80); format: functional; details: time 72 hrs
Candida tropicalis [30] = assay: Fungicidal activity against Candida tropicalis ATCC 28707 assessed as fungal killing incubated for 48 hrs followed by plating on SD agar plate; format: functional; details: read-out: MFC99.9
[31] = Toxicity in Swiss mouse assessed as relative spleen weight at 1 mg/kg, ip measured after 24 hrs (reference value: 4.02 +/- 0.59 g); format: organism-based; details: in vivo
[32] = Toxicity in Swiss mouse assessed as body weight at 20 mg/kg, ip measured after 24 hrs (reference value: 36.25 +/- 0.31 g); format: organism-based; details: in vivo
[33] = Toxicity in Swiss mouse infected with Candida albicans ATCC 10231 assessed as effect on kidney weight at 10 mg/kg, ip administered at 2, 24 and 48 hrs post-infection and measured at 24 hrs after last dose; format: organism-based; details: in vivo, 72 h
[34] = Toxicity in Swiss mouse assessed as death of organism at 0.5 to 20 mg/kg, ip measured for 24 hrs; format: organism-based; details: in vivo, dose 0.5-20 mg/kg
Candida albicans [35] = assay: Antifungal activity against Candida albicans ATCC 10231 assessed as reduction in fungal growth incubated for 48 hrs in presence of sorbitol by broth microdilution method; format: functional
Candida albicans [36] = assay: Fungicidal activity against Candida albicans isolate 9 assessed as fungal killing incubated for 48 hrs followed by plating on SD agar plate; format: functional; details: read-out: MFC99.9

## [Cl-].[N-]=[N+]=NCCCCCCCCCCCCOCCCc1ccc[n+](Cc2ccccc2)c1
[1]
  Activity: 15.79 g
[2]
  Activity: Non-Toxic
[3]
  Activity: Non-Toxic
Candida albicans [4]
  Activity: Active
[5]
  Activity: 5.39 g
Candida albicans [6]
  MIC: 7.8 µg/mL
[7]
  Activity: Non-Toxic
Candida tropicalis [8]
  MIC: 15.6 µg/mL
[9]
  Activity: 45 g
Candida albicans [10]
  Activity: 0 log10CFU
[11]
  Activity: 15.52 g
Candida tropicalis [12]
  MIC: 7.8 µg/mL
Nakaseomyces glabratus
  MIC: 7.8 µg/mL
[13]
  Activity: 13.58 g
Candida albicans [14]
  MIC: 7.8 µg/mL
Pichia kudriavzevii [15]
  Activity: Active
[16]
  Activity: Toxic
Candida albicans [17]
  MIC: 15.6 µg/mL
[18]
  Activity: Non-Toxic
[19]
  Activity: Non-Toxic
[20]
  Activity: 5.33 g
Pichia kudriavzevii [21]
  MFC: 7.8 µg/mL
[22]
  Activity: 4.07 g
Candida albicans [23]
  MIC: 15.6 µg/mL
Candida albicans [24]
  Activity: Active
Candida albicans [25]
  Activity: Active
Candida albicans [26]
  MFC: 7.8 µg/mL
Candida albicans [27]
  MFC: 7.8 µg/mL
[28]
  Activity: 44.68 g
Candida albicans [29]
  Activity: 0 log10CFU
Candida tropicalis [30]
  MFC: 15.6 µg/mL
[31]
  Activity: 4.29 g
[32]
  Activity: 32.5 g
[33]
  Activity: Non-Toxic
[34]
  Activity: Non-Toxic
Candida albicans [35]
  MIC: 7.8 µg/mL
Candida albicans [36]
  MFC: 31.2 µg/mL
